Assays:
[1] = target: BRD4(D2) (Homo sapiens (Human), UniProt O60885); test: Inhibitory activity against BRD4(D2), HTRF assay; type: binding
Procedure: (§1) (+)-JQ1 was used as comparison compound, to evaluated the inhibitory activity of compounds of the invention against BRD4(D1) and BRD4(D2) in vitro.
(§2) The assays of BRD4 (D1) and BRD4 (D2) were conducted in a 384-well polystyrene plate. The test compounds were first serially diluted in DMSO and the test compound/DMSO were transferred to 384-well plates. The final concentration of DMSO in the assay was 0.1%. 2 volumes of protein/peptide mixture were added into 384-well plates, then 2 volumes of assay mixture were added, and shake for 30 s. The plate was incubated at room temperature for 2 h. Then the HTRF signal on EnVision was readed.
(§3) Use equation (1) to fit the date in Excel to obtain the value of the inhibition rate. Inhibition rate (%)=(maximum value−signal value)/(maximum value−minimum value)*100 Equation(1):
(§4) IC50 determination was performed by fitting the data using GraphPad Prism 5.0 software and equation (2). Y=bottom+(Top−bottom)/(1+10^((Log IC50−X)*HillSlope)); Equation(2): wherein, Y represents the percentage of inhibition (%); X represents the concentration of test compounds.
(§5) The IC50 data of the examples were provided in the following table, wherein, A stands for IC50<100 nM; B stands for IC50 is 100-300 nM; C stands for IC50>300 nM.

[2] = target: BRD4(D1) (Homo sapiens (Human), UniProt O60885); test: Inhibitory activity against BRD4(D1), HTRF assay; type: binding
Procedure: as §1, §2, §3, §4, §5

Row | IC50 ([1]; numeric values) [µM] | IC50 ([2]; numeric values) [µM] | IC50 ([1]; class symbols) [µM] | IC50 ([2]; class symbols) [µM] | Molecule
1 |  |  | < 0.1 | 0.1 to 0.3 | COc1cccc(Cn2c(C)nc3ncc(-c4c[nH]c(=O)c5[nH]c(C)cc45)cc32)c1 [Example 16, 4-(1-(3-methoxybenzyl)-2-methyl-1H-imidazo[4,5-b]pyridin-6-yl)-2-methyl-1,6-dihydro-7H-pyrrolo[2,3-c]pyridin-7-one]
2 |  |  | > 0.3 | > 0.3 | Cc1nc2ncc(-c3cn(Cc4cccnc4)c(=O)c4[nH]ccc34)cc2n1Cc1ccc(Cl)cc1 [Example 17, 4-(1-(4-chlorobenzyl)-2-methyl-1H-imidazo[4,5-b]pyridin-6-yl)-6-(pyridin-3-ylmethyl)-1,6-dihydro-7H-pyrrolo[2,3-c]pyridin-7-one]
3 | 0.0025 | 0.0128 |  |  | COc1ccc(Cn2c(C)nc3ncc(-c4cn(C)c(=O)c5[nH]ccc45)nc32)cc1 [Example 20, 4-(1-(4-methoxybenzyl)-2-methyl-H-imidazo[4,5-b]pyrazin-6-yl)-6-methyl-1H-pyrrol o[2,3-c]pyridin-7(6H)-one]
4 | 0.0018 | 0.0061 |  |  | Cc1nc2ncc(-c3cn(C)c(=O)c4[nH]ccc34)nc2n1C(C)c1ccc(Cl)cc1 (stereo not drawn) [Example 21, 4-(1-(1-(4-chlorophenyl)ethyl)-2-methyl-1H-imidazo[4,5-b]pyrazin-6-yl)-6-methyl-1,6-dihydro-7H-pyrrolo[2,3-c]pyridin-7-one]
5 |  |  | < 0.1 | < 0.1 | Cc1nc2ncc(-c3cn(C)c(=O)c4[nH]ccc34)nc2n1Cc1ccccc1 [Example 22, 4-(1-benzyl-2-methyl-1H-imidazo[4,5-b]pyrazin-6-yl)-6-methyl-1H-pyrrolo[2,3-c]pyrid in-7(6H)-one]
6 |  |  | < 0.1 | < 0.1 | Cc1nc2ncc(-c3cn(C)c(=O)c4[nH]ccc34)nc2n1Cc1cc(C(F)(F)F)ccc1F [Example 24, 4-(1-(2-fluoro-5-trifluoromethylbenzyl)-2-methyl-1H-imidazo[4,5-b]pyrazin-6-yl)-6-methyl-1H-pyrrolo[2,3-c]pyridin-7(6H)-one]
7 |  |  | < 0.1 | < 0.1 | Cc1nc2ncc(-c3cn(C)c(=O)c4[nH]ccc34)nc2n1Cc1ccc(Cl)cc1F [Example 26, 4-(1-(2-fluoro-4-chlorobenzyl)-2-methyl-H-imidazo[4,5-b]pyrazin-6-yl)-6-methyl-H-pyrrolo[2,3-c]pyridin-7(6H)-one]
8 |  |  | < 0.1 | < 0.1 | Cc1nc2ncc(-c3cn(C)c(=O)c4[nH]ccc34)nc2n1Cc1ccc(C(F)(F)F)c(F)c1 [Example 28, 4-(1-(3-fluoro-4-trifluoromethylbenzyl)-2-methyl-1H-imidazo[4,5-b]pyrazin-6-yl)-6-methyl-1H-pyrrolo[2,3-c]pyridin-7(6H)-one]
9 |  | 0.016 |  |  | (+)-JQ1 [reference compound]

Further lines, the molecule ahead of its results:

Row | Molecule | IC50 ([1]; numeric values) [µM] | IC50 ([2]; numeric values) [µM] | IC50 ([1]; class symbols) [µM] | IC50 ([2]; class symbols) [µM]
10 | Cc1nc2ncc(-c3cn(C)c(=O)c4[nH]ccc34)cc2n1Cc1ccc(Cl)cc1 [Example 1, 4-(1-(4-chlorobenzyl)-2-methyl-1H-imidazo[4,5-b]pyridin-6-yl)-6-methyl-1H-pyrrolo[2,3-c]pyridin-7(6H)-one] | 0.0025 | 0.007 |  | 
11 | COc1ccc(Cn2c(C)nc3ncc(-c4cn(C)c(=O)c5[nH]ccc45)cc32)cc1 [Example 2, 4-(1-(4-methoxybenzyl)-2-methyl-1H-imidazo[4,5-b]pyridin-6-yl)-6-methyl-1H-pyrrolo[2,3-c]pyridin-7(6H)-one] | 0.003 | 0.0104 |  | 
12 | CSc1ccc(Cn2c(C)nc3ncc(-c4cn(C)c(=O)c5[nH]ccc45)cc32)cc1 [Example 3, 6-methyl-4-(2-methyl-1-(4-(methylthio)benzyl)-1H-imidazo[4,5-b]pyridin-6-yl)-1H-pyrrolo[2,3-c]pyridin-7(6H)-one] | 0.0032 | 0.0127 |  | 
13 | Cc1nc2ncc(-c3cn(C)c(=O)c4[nH]ccc34)cc2n1Cc1ccc(C(F)(F)F)cc1 [Example 4, 6-methyl-4-(2-methyl-1-(4-(trifluoromethyl)benzyl)-1H-imidazo[4,5-b]pyridin-6-yl)-1H-pyrrolo[2,3-c]pyridin-7(6H)-one] | 0.004 | 0.0146 |  | 
14 | Cc1nc2ncc(-c3cn(C)c(=O)c4[nH]ccc34)cc2n1Cc1ccccc1 [Example 6, 4-(1-benzyl-2-methyl-1H-imidazo[4,5-b]pyridin-6-yl)-6-methyl-1H-pyrrolo[2,3-c]pyrid in-7(6H)one] | 0.0028 | 0.0076 |  | 
15 | Cc1nc2ncc(-c3cn(C)c(=O)c4[nH]ccc34)cc2n1C [Example 7, 4-(1,2-dimethyl-1H-imidazo[4,5-b]pyridin-6-yl)-6-methyl-1,6-dihydro-7H-pyrrolo[2,3-c]pyridin-7-one] | 0.0108 | 0.0524 |  | 
16 | Cc1nc2ncc(-c3cn(C)c(=O)c4[nH]ccc34)cc2[nH]1 [Example 8, 6-methyl-4-(2-methyl-1H-imidazo[4,5-b]pyridin-6-yl)-1,6-dihydro-7H-pyrrolo[2,3-c]pyridin-7-one] | 0.006 | 0.0399 |  | 
17 | COC(=O)c1ccc(Cn2c(C)nc3ncc(-c4cn(C)c(=O)c5[nH]ccc45)cc32)cc1 [Example 9, methyl 4-((2-methyl-6-(6-methyl-7-oxo-6,7-dihydro-1H-pyrrolo[2,3-c]pyridin-4-yl)-1H-imidazo[4,5-b]pyridin-1-yl)methyl)benzoate] |  |  | 0.1 to 0.3 | 0.1 to 0.3
18 | COc1ccc(Cn2c(C)nc3ncc(-c4cn(Cc5ccccc5)c(=O)c5[nH]ccc45)cc32)cc1 [Example 10, 6-benzyl-4-(1-(4-methoxybenzyl)-2-methyl-1H-imidazo[4,5-b]pyridin-6-yl)-1,6-dihydro-7H-pyrrolo[2,3-c]pyridin-7-one] |  |  | > 0.3 | > 0.3
19 | COc1ccc(Cn2c(C)nc3ncc(-c4cn(CC(C)C)c(=O)c5[nH]ccc45)cc32)cc1 [Example 11, 6-isobutyl-4-(1-(4-methoxybenzyl)-2-methyl-1H-imidazo[4,5-b]pyridin-6-yl)-1,6-dihydro-7H-pyrrolo[2,3-c]pyridin-7-one] |  |  | 0.1 to 0.3 | > 0.3
20 | CCn1cc(-c2cnc3nc(C)n(Cc4ccc(OC)cc4)c3c2)c2cc[nH]c2c1=O [Example 12, 6-ethyl-4-(1-(4-methoxybenzyl)-2-methyl-1H-imidazo[4,5-b]pyridin-6-yl)-1,6-dihydro-7H-pyrrolo[2,3-c]pyridin-7-one] |  |  | 0.1 to 0.3 | 0.1 to 0.3
21 | COc1ccc(Cn2c(C)nc3ncc(-c4c[nH]c(=O)c5[nH]c(C)cc45)cc32)cc1 [Example 13, 4-(1-(4-methoxybenzyl)-2-methyl-1H-imidazo[4,5-b]pyridin-6-yl)-2-methyl-1,6-dihydro-7H-pyrrolo[2,3-c]pyridin-7-one] |  |  | 0.1 to 0.3 | 0.1 to 0.3
22 | COc1ccc(Cn2c(C)nc3ncc(-c4cn(Cc5nccs5)c(=O)c5[nH]ccc45)cc32)cc1 [Example 14, 4-(1-(4-methoxybenzyl)-2-methyl-1H-imidazo[4,5-b]pyridin-6-yl)-6-(thiazol-2-ylmethyl)-1,6-dihydro-7H-pyrrolo[2,3-c]pyridin-7-one] |  |  | > 0.3 | 0.1 to 0.3
23 | COc1ccc(Cn2c(C)nc3ncc(-c4cn(Cc5ccn[nH]5)c(=O)c5[nH]ccc45)cc32)cc1 [Example 15, 4-(1-(4-methoxybenzyl)-2-methyl-1H-imidazo[4,5-b]pyridin-6-yl)-6-(pyrazol-2-methyl)-1,6-dihydro-7H-pyrrolo[2,3-c]pyridin-7-one] |  |  | 0.1 to 0.3 | > 0.3

— patent publication US11466034B2, “Compound functioning as bromodomain protein inhibitor, and composition” (Betta Pharmaceuticals Co., Ltd., priority 2017, dated 2022)
